Each structure is given as a SMILES string. Read-outs that look alike come from different tables or passages of the source.

The experiment deals with C. difficile R20291 spores. Put plainly: C. difficile spore germination assay (optical density, OD580). As to conditions: for activity at 125 µM / % Germination: ± standard deviation.
[1] abbreviates: Clostridioides difficile, R20291SPORES, Table 2, 6 mM taurocholate, 12 mM glycine.
The mark [2] stands for this setting: Clostridioides difficile, R20291SPORES, read-out: % Germination, Table 2, compound 125 μM, 6 mM taurocholate, 12 mM glycine.
Where [3] appears, read: Clostridioides difficile, R20291SPORES, read-out: IC50 against the R20291 strain, R20291 strain.
Setting [4] is: Clostridioides difficile, R20291SPORES, Table 3, 6 mM taurocholate, 12 mM glycine.
Setting [5] is: Clostridioides difficile, R20291SPORES, read-out: % Germination, Table 3, compound 125 μM, 6 mM taurocholate, 12 mM glycine.
Setting [6] is: Table 4, compound 125 uM, 6 mM taurocholate, 12 mM glycine.
The mark [7] stands for this setting: Clostridioides difficile, R20291SPORES, Table 4, 6 mM taurocholate, 12 mM glycine.

In the case of `C[C@H](CCC(=O)N1CCc2ccccc21)[C@H]1CC[C@H]2[C@@H]3[C@H](O)C[C@@H]4C[C@H](O)CC[C@]4(C)[C@H]3C[C@H](O)[C@]12C` [Compound 1], the IC50 – broadly, the concentration needed to halve the response being measured – reads like this: under setting [1], 1 ± 0.3 µM; under setting [3], 1 µM. Moreover, under setting [2], the activity at 125 µM came out at 4 ± 1%. For the compound `C[C@H](CCC(=O)N1CCc2c(Cl)cccc21)[C@H]1CC[C@H]2[C@@H]3[C@H](O)C[C@@H]4C[C@H](O)CC[C@]4(C)[C@H]3C[C@H](O)[C@]12C` [Compound 2], the activity at 125 µM under setting [2] stood at 95 ± 8%. Turning to `Cc1ccc2c(c1)CCN2C(=O)CC[C@@H](C)[C@H]1CC[C@H]2[C@@H]3[C@H](O)C[C@@H]4C[C@H](O)CC[C@]4(C)[C@H]3C[C@H](O)[C@]12C` [Compound 3], the activity at 125 µM under setting [2] amounted to 100%. Consider `C[C@H](CCC(=O)N1CCc2cc(F)ccc21)[C@H]1CC[C@H]2[C@@H]3[C@H](O)C[C@@H]4C[C@H](O)CC[C@]4(C)[C@H]3C[C@H](O)[C@]12C` [Compound 4], for which inhibition under setting [1] was half-maximal at 0.4 ± 0.04 µM (IC50). Besides, the activity at 125 µM under setting [2] was 5 ± 3%. Turning to `C[C@H](CCC(=O)N1CCc2cc(Cl)ccc21)[C@H]1CC[C@H]2[C@@H]3[C@H](O)C[C@@H]4C[C@H](O)CC[C@]4(C)[C@H]3C[C@H](O)[C@]12C` [Compound 5], the activity at 125 µM under setting [2] is 70 ± 3%. As to `C[C@H](CCC(=O)N1CCc2cc(Br)ccc21)[C@H]1CC[C@H]2[C@@H]3[C@H](O)C[C@@H]4C[C@H](O)CC[C@]4(C)[C@H]3C[C@H](O)[C@]12C` [Compound 6], the activity at 125 µM under setting [2] stood at 90 ± 3%. For the same compound, the concentration for half-maximal inhibition (IC50) under setting [3] amounted to 0.4 µM. As for `COc1ccc2c(c1)N(C(=O)CC[C@@H](C)[C@H]1CC[C@H]3[C@@H]4[C@H](O)C[C@@H]5C[C@H](O)CC[C@]5(C)[C@H]4C[C@H](O)[C@]13C)CC2` [Compound 7], the activity at 125 µM under setting [2] came out at 100%.

On to `C[C@H](CCC(=O)N1CCCc2ccccc21)[C@H]1CC[C@H]2[C@@H]3[C@H](O)C[C@@H]4C[C@H](O)CC[C@]4(C)[C@H]3C[C@H](O)[C@]12C` [Compound 8], for which 22 ± 3 µM corresponded to half-maximal inhibition under setting [1] (IC50). Under setting [2], the activity at 125 µM is 17 ± 3%.

On to `Cc1ccc2c(c1)CCCN2C(=O)CC[C@@H](C)[C@H]1CC[C@H]2[C@@H]3[C@H](O)C[C@@H]4C[C@H](O)CC[C@]4(C)[C@H]3C[C@H](O)[C@]12C` [Compound 9], for which the activity at 125 µM under setting [2] stood at 100%. For the compound `C[C@H](CCC(=O)N1CCc2ccccc2C1)[C@H]1CC[C@H]2[C@@H]3[C@H](O)C[C@@H]4C[C@H](O)CC[C@]4(C)[C@H]3C[C@H](O)[C@]12C` [Compound 11], under setting [2], the activity at 125 µM was 78 ± 2%.

`COc1ccc2c(c1)CCN(C(=O)CC[C@@H](C)[C@H]1CC[C@H]3[C@@H]4[C@H](O)C[C@@H]5C[C@H](O)CC[C@]5(C)[C@H]4C[C@H](O)[C@]13C)C2` [Compound 12]: under setting [2], the activity at 125 µM stood at 100%. Still for that read-out and setting: under `C[C@H](CCC(=O)N1CCc2cc(Br)ccc2C1)[C@H]1CC[C@H]2[C@@H]3[C@H](O)C[C@@H]4C[C@H](O)CC[C@]4(C)[C@H]3C[C@H](O)[C@]12C` [Compound 13] stands 100%.

Turning to `C[C@H](CCC(=O)N(C)c1ccccc1)[C@H]1CC[C@H]2[C@@H]3[C@H](O)C[C@@H]4C[C@H](O)CC[C@]4(C)[C@H]3C[C@H](O)[C@]12C` [Compound 14], 32 ± 5 µM corresponded to half-maximal inhibition under setting [1] (IC50). Further, the activity at 125 µM under setting [2] is 31 ± 2%. Regarding `C=CCN(CC=C)C(=O)CC[C@@H](C)[C@H]1CC[C@H]2[C@@H]3[C@H](O)C[C@@H]4C[C@H](O)CC[C@]4(C)[C@H]3C[C@H](O)[C@]12C` [Compound 15], the IC50 under setting [1] was determined as 8 ± 3 µM. In addition, the activity at 125 µM under setting [2] was 0.9 ± 0.2%.

`Cc1nc(CC[C@@H](C)[C@H]2CC[C@H]3[C@@H]4[C@H](O)C[C@@H]5C[C@H](O)CC[C@]5(C)[C@H]4C[C@H](O)[C@]23C)nc2ccccc12` [Compound 30] displayed a 50% inhibitory concentration (IC50) under setting [4] of 37 ± 4 µM. In addition, the activity at 125 µM under setting [5] was found to be 35 ± 5%. As for `C[C@H](CCc1nc(-c2ccccc2)c2ccccc2n1)[C@H]1CC[C@H]2[C@@H]3[C@H](O)C[C@@H]4C[C@H](O)CC[C@]4(C)[C@H]3C[C@H](O)[C@]12C` [Compound 31], the activity at 125 µM under setting [5] was found to be 92 ± 4%. Same read-out and setting: in the case of `C[C@H](CCc1ncc2c(F)cccc2n1)[C@H]1CC[C@H]2[C@@H]3[C@H](O)C[C@@H]4C[C@H](O)CC[C@]4(C)[C@H]3C[C@H](O)[C@]12C` [Compound 32] it was 36 ± 6%. Under setting [4], `C[C@H](CCc1ncc2cc(F)ccc2n1)[C@H]1CC[C@H]2[C@@H]3[C@H](O)C[C@@H]4C[C@H](O)CC[C@]4(C)[C@H]3C[C@H](O)[C@]12C` [Compound 33] displayed an IC50 of 28 ± 4 µM. Further, the activity at 125 µM under setting [5] was 7 ± 3%. With `C[C@H](CCc1ncc2cc(Cl)ccc2n1)[C@H]1CC[C@H]2[C@@H]3[C@H](O)C[C@@H]4C[C@H](O)CC[C@]4(C)[C@H]3C[C@H](O)[C@]12C` [Compound 34], under setting [5], the activity at 125 µM was 59 ± 0.2%. In the case of `C[C@H](CCc1ncc2ccc(F)cc2n1)[C@H]1CC[C@H]2[C@@H]3[C@H](O)C[C@@H]4C[C@H](O)CC[C@]4(C)[C@H]3C[C@H](O)[C@]12C` [Compound 35], the activity at 125 µM under setting [5] is 57 ± 2%. Still for that read-out and setting: under `C[C@H](CCc1ncc2ccc(Cl)cc2n1)[C@H]1CC[C@H]2[C@@H]3[C@H](O)C[C@@H]4C[C@H](O)CC[C@]4(C)[C@H]3C[C@H](O)[C@]12C` [Compound 36] stands 89 ± 10%; under `COc1ccc2cnc(CC[C@@H](C)[C@H]3CC[C@H]4[C@@H]5[C@H](O)C[C@@H]6C[C@H](O)CC[C@]6(C)[C@H]5C[C@H](O)[C@]34C)nc2c1` [Compound 37], 61 ± 5%. `C[C@H](CCc1ncc2cccc(F)c2n1)[C@H]1CC[C@H]2[C@@H]3[C@H](O)C[C@@H]4C[C@H](O)CC[C@]4(C)[C@H]3C[C@H](O)[C@]12C` [Compound 38] returned an IC50 under setting [4] of 79 ± 23 µM. Besides, the activity at 125 µM under setting [5] amounted to 7 ± 0.7%. As for `COc1cc2cnc(CC[C@@H](C)[C@H]3CC[C@H]4[C@@H]5[C@H](O)C[C@@H]6C[C@H](O)CC[C@]6(C)[C@H]5C[C@H](O)[C@]34C)nc2cc1OC` [Compound 39], under setting [5], the activity at 125 µM turned out to be 78 ± 3%.

`C[C@H](CCc1ncc2cc(F)c(F)cc2n1)[C@H]1CC[C@H]2[C@@H]3[C@H](O)C[C@@H]4C[C@H](O)CC[C@]4(C)[C@H]3C[C@H](O)[C@]12C` [Compound 41]: the activity at 125 µM under setting [5] amounted to 70 ± 23%. Consider `C[C@H](CCc1nc2ccccc2c(=O)[nH]1)[C@H]1CC[C@H]2[C@@H]3[C@H](O)C[C@@H]4C[C@H](O)CC[C@]4(C)[C@H]3C[C@H](O)[C@]12C` [Compound 43], for which the IC50 under setting [4] turned out to be 20 ± 11 µM. The activity at 125 µM under setting [5] worked out at 32 ± 0.6%. `C[C@H](CCc1nc2ccccc2[nH]1)[C@H]1CC[C@H]2[C@@H]3[C@H](O)C[C@@H]4C[C@H](O)CC[C@]4(C)[C@H]3C[C@H](O)[C@]12C` [Compound 45]: inhibition (Table 4, 6 mM taurocholate, 12 mM glycine) was half-maximal at 12 ± 7 µM (IC50). Moreover, the “% Germination” value under setting [6] worked out at 18 ± 2%.

`C[C@H](CCc1nc2ccccc2[nH]1)[C@H]1CC[C@H]2[C@@H]3[C@H](O)C[C@@H]4C[C@H](O)CC[C@]4(C)[C@H]3C[C@H](O)[C@]12C` [Compound 46] returned a half-maximal inhibitory concentration (IC50) under setting [7] of 6 ± 1 µM. Also, the activity at 125 µM (Clostridioides difficile, R20291SPORES, read-out: % Germination, Table 4, compound 125 uM, 6 mM taurocholate, 12 mM glycine) amounted to 23 ± 5%. `C[C@H](CCc1nc2ccccc2s1)[C@H]1CC[C@H]2[C@@H]3[C@H](O)C[C@@H]4C[C@H](O)CC[C@]4(C)[C@H]3C[C@H](O)[C@]12C` [Compound 47] displayed an IC50 under setting [7] of 6 ± 4 µM. Further, the “% Germination” value under setting [6] is given as −6 ± 0.05%.

Consider `C[C@H](CCc1nc2ccccc2s1)[C@H]1CC[C@H]2[C@@H]3[C@H](O)C[C@@H]4C[C@H](O)CC[C@]4(C)[C@H]3C[C@H](O)[C@]12C` [Compound 48], for which the “% Germination” value under setting [6] amounted to 88 ± 5%. `C[C@H](CCc1nc2ccccc2s1)[C@H]1CC[C@H]2[C@@H]3[C@H](O)C[C@@H]4C[C@H](O)CC[C@]4(C)[C@H]3C[C@H](O)[C@]12C` [Compound 49]: the “% Germination” value under setting [6] worked out at 81 ± 2%. The compound `C[C@H](CCc1nc2ccccc2o1)[C@H]1CC[C@H]2[C@@H]3[C@H](O)C[C@@H]4C[C@H](O)CC[C@]4(C)[C@H]3C[C@H](O)[C@]12C` [Compound 50] yielded an IC50 under setting [7] of 6 ± 3 µM. Also, the “% Germination” value under setting [6] was −4 ± 0.8%. For the compound `C[C@H](CCc1nc2ccccc2o1)[C@H]1CC[C@H]2[C@@H]3[C@H](O)C[C@@H]4C[C@H](O)CC[C@]4(C)[C@H]3C[C@H](O)[C@]12C` [Compound 51], under setting [6], the “% Germination” value turned out to be 80 ± 4%. Turning to `C[C@H](CCc1nc2ccccc2o1)[C@H]1CC[C@H]2[C@@H]3[C@H](O)C[C@@H]4C[C@H](O)CC[C@]4(C)[C@H]3C[C@H](O)[C@]12C` [Compound 52], the “% Germination” value under setting [6] is listed as 83 ± 8%.

These data come from patent US12220421B2, “Inhibitors of C. difficile spore germination” (THE BOARDS OF REGENTS OF THE NEVADA SYSTEM OF HIGHER …, priority 2021, dated 2025).
